Results as given in ChEMBL document CHEMBL3045324, “5-phenyl-1-benzofuran-2-yl derivatives: synthesis, antimicrobial, and antioxidant activity” (2013).
Converted amounts (≈) assume the structure as drawn. The source made the active and inactive calls. The rule behind the calls is not given here.

Experiments:
Escherichia coli [1] = assay: Antibacterial activity against Escherichia coli NCTC 12923 assessed as growth inhibition at 1 to 50 mg/mL after 24 hr; format: functional, organism-based
Bacillus subtilis [2] = assay: Antibacterial activity against Bacillus subtilis NCTC 10400 assessed as growth inhibition at 50 mg/mL after 24 hr; format: functional; conditions: for zone of inhibition at 50000 µg/mL: NCTC 10400, 24 h, read-out: IZ
Escherichia coli [3] = assay: Antibacterial activity against Escherichia coli NCTC 12923 assessed as growth inhibition at 50 mg/mL after 24 hr; format: functional; conditions: for zone of inhibition at 50000 µg/mL: NCTC 12923, 24 h, read-out: IZ
Candida albicans [4] = assay: Antifungal activity against Candida albicans NCPF 3179 assessed as growth inhibition at 50 mg/mL after 3 days; format: functional; conditions: NCPF 3179, 72 h, read-out: IZ
[5] = test system: Radical scavenging activity; assay: Antioxidant activity assessed as DPPH radical scavenging activity at 1 mg/mL after 15 min UV-vis spectrophotometric analysis relative to control; format: functional
Bacillus subtilis [6] = assay: Antibacterial activity against Bacillus subtilis NCTC 10400 assessed as growth inhibition after 24 hr; format: functional; conditions: NCTC 10400, 24 h
Staphylococcus aureus [7] = assay: Antibacterial activity against Staphylococcus aureus NCTC 10788 assessed as growth inhibition at 50 mg/mL after 24 hr; format: functional; conditions: for zone of inhibition at 50000 µg/mL: NCTC 10788, 24 h, read-out: IZ
Staphylococcus aureus [8] = assay: Antibacterial activity against Staphylococcus aureus NCTC 10788 assessed as growth inhibition after 24 hr; format: functional; conditions: NCTC 10788, 24 h
Staphylococcus aureus [9] = assay: Antibacterial activity against Staphylococcus aureus NCTC 10788 assessed as growth inhibition at 1 to 50 mg/mL after 24 hr; format: functional, organism-based
Candida albicans [10] = assay: Antifungal activity against Candida albicans NCPF 3179 assessed as growth inhibition at 1 to 50 mg/mL after 3 days; format: functional, organism-based
Bacillus subtilis [11] = assay: Antibacterial activity against Bacillus subtilis NCTC 10400 assessed as growth inhibition at 1 to 50 mg/mL after 24 hr; format: functional, organism-based
Candida albicans [12] = assay: Antifungal activity against Candida albicans NCPF 3179 assessed as growth inhibition after 3 days; format: functional; conditions: NCPF 3179, 72 h
Escherichia coli [13] = assay: Antibacterial activity against Escherichia coli NCTC 12923 assessed as growth inhibition after 24 hr; format: functional; conditions: NCTC 12923, 24 h

Molecule | growth inhibition (GI) (Escherichia coli [1]) | Activity [5] | growth inhibition (GI) (Staphylococcus aureus [9]) | growth inhibition (GI) (Candida albicans [10]) | growth inhibition (GI) (Bacillus subtilis [11]) | also measured
O=[N+]([O-])c1cccc(-c2ccc(C(O)c3cc4cc(-c5cccc([N+](=O)[O-])c5)ccc4o3)cc2)c1 (stereo not given) | inactive | 19.9% | – | – | – | zone of inhibition at 50000 µg/mL (Bacillus subtilis [2]): 6 mm; zone of inhibition at 50000 µg/mL (Escherichia coli [3]): 0 mm; zone of inhibition at 50000 µg/mL (Candida albicans [4]): 0 mm; MIC (Bacillus subtilis [6]): 500 mg/L (≈ 1070 µM); zone of inhibition at 50000 µg/mL (Staphylococcus aureus [7]): 6 mm; MIC (Staphylococcus aureus [8]): 500 mg/L (≈ 1070 µM)
CCOc1ccccc1-c1ccc(C(O)(CC)c2cc3cc(-c4ccccc4OCC)ccc3o2)cc1 (stereo not given) | inactive | 5.5% | inactive | inactive | inactive | –
CC(C)(C)C(O)(c1ccc(-c2ccccc2)cc1)c1cc2cc(-c3ccccc3)ccc2o1 (stereo not given) | inactive | 18.8% | inactive | inactive | inactive | –
CCOc1ccccc1-c1ccc(C(O)c2cc3cc(-c4ccccc4OCC)ccc3o2)cc1 (stereo not given) | inactive | 19.3% | inactive | inactive | inactive | –
OC(c1ccc(-c2ccccc2F)cc1)c1cc2cc(-c3ccccc3F)ccc2o1 (stereo not given) | inactive | 21.3% | inactive | inactive | inactive | zone of inhibition at 50000 µg/mL (Bacillus subtilis [2]): 6 mm; zone of inhibition at 50000 µg/mL (Escherichia coli [3]): 0 mm; zone of inhibition at 50000 µg/mL (Candida albicans [4]): 0 mm; MIC (Bacillus subtilis [6]): 50 mg/L (≈ 121 µM); zone of inhibition at 50000 µg/mL (Staphylococcus aureus [7]): 0 mm
CCc1ccc(-c2ccc(C(O)c3cc4cc(-c5ccc(CC)cc5)ccc4o3)cc2)cc1 (stereo not given) | inactive | 55.7% | inactive | inactive | inactive | –
CCc1ccc(-c2ccc(C(O)(CC)c3cc4cc(-c5ccc(CC)cc5)ccc4o3)cc2)cc1 (stereo not given) | inactive | 55.2% | inactive | inactive | inactive | –
O=C(c1ccc(-c2ccccc2)cc1)c1cc2cc(-c3ccccc3)ccc2o1 | inactive | 7.3% | – | – | – | zone of inhibition at 50000 µg/mL (Bacillus subtilis [2]): 22 mm; zone of inhibition at 50000 µg/mL (Escherichia coli [3]): 0 mm; zone of inhibition at 50000 µg/mL (Candida albicans [4]): 10 mm; MIC (Candida albicans [12]): 10 mg/L (≈ 26.7 µM); MIC (Bacillus subtilis [6]): 10 mg/L (≈ 26.7 µM); zone of inhibition at 50000 µg/mL (Staphylococcus aureus [7]): 15 mm; MIC (Staphylococcus aureus [8]): 1 mg/L (≈ 2.67 µM)
O=C(c1ccc(Br)cc1)c1cc2cc(Br)ccc2o1 | – | 11.7% | – | – | – | zone of inhibition at 50000 µg/mL (Bacillus subtilis [2]): 24 mm; zone of inhibition at 50000 µg/mL (Escherichia coli [3]): 17 mm; zone of inhibition at 50000 µg/mL (Candida albicans [4]): 15 mm; MIC (Escherichia coli [13]): 50 mg/L (≈ 132 µM); MIC (Candida albicans [12]): 50 mg/L (≈ 132 µM); MIC (Bacillus subtilis [6]): 50 mg/L (≈ 132 µM); zone of inhibition at 50000 µg/mL (Staphylococcus aureus [7]): 23 mm; MIC (Staphylococcus aureus [8]): 50 mg/L (≈ 132 µM)
CC(=O)c1ccccc1-c1ccc(C(=O)c2cc3cc(-c4ccccc4C(C)=O)ccc3o2)cc1 | inactive | 19% | – | – | – | zone of inhibition at 50000 µg/mL (Bacillus subtilis [2]): 10 mm; zone of inhibition at 50000 µg/mL (Escherichia coli [3]): 0 mm; zone of inhibition at 50000 µg/mL (Candida albicans [4]): 0 mm; MIC (Bacillus subtilis [6]): 100 mg/L (≈ 218 µM); zone of inhibition at 50000 µg/mL (Staphylococcus aureus [7]): 8 mm; MIC (Staphylococcus aureus [8]): 100 mg/L (≈ 218 µM)
OC(c1ccc(-c2ccccc2)cc1)c1cc2cc(-c3ccccc3)ccc2o1 (stereo not given) | inactive | 79.5% | inactive | inactive | inactive | –
N#Cc1ccc(Cl)c(-c2ccc(C(=O)c3cc4cc(-c5cc(C#N)ccc5Cl)ccc4o3)cc2)c1 | inactive | 15.8% | inactive | inactive | inactive | –
CCc1ccc(-c2ccc(C(=O)c3cc4cc(-c5ccc(CC)cc5)ccc4o3)cc2)cc1 | inactive | 17.3% | – | – | – | –
CCc1ccc(-c2ccc(C(O)(c3cc4cc(-c5ccc(CC)cc5)ccc4o3)C(C)C)cc2)cc1 (stereo not given) | inactive | 34.7% | inactive | inactive | inactive | –
CCOc1ccccc1-c1ccc(C(O)(Cc2ccccc2)c2cc3cc(-c4ccccc4OCC)ccc3o2)cc1 (stereo not given) | inactive | 16.4% | inactive | inactive | inactive | –
CCOc1ccccc1-c1ccc(C(O)(c2cc3cc(-c4ccccc4OCC)ccc3o2)C(C)C)cc1 (stereo not given) | inactive | 11.4% | inactive | inactive | inactive | –

Molecule | growth inhibition (GI) (Escherichia coli [1]) | Activity [5] | growth inhibition (GI) (Staphylococcus aureus [9]) | growth inhibition (GI) (Candida albicans [10]) | growth inhibition (GI) (Bacillus subtilis [11]) | also measured
CS(=O)(=O)c1cccc(-c2ccc(C(O)c3cc4cc(-c5cccc(S(C)(=O)=O)c5)ccc4o3)cc2)c1 (stereo not given) | inactive | 39.8% | – | – | – | –
CCOc1ccccc1-c1ccc(C(=O)c2cc3cc(-c4ccccc4OCC)ccc3o2)cc1 | inactive | 16.1% | inactive | inactive | inactive | –
CC(C)C(O)(c1ccc(-c2ccccc2)cc1)c1cc2cc(-c3ccccc3)ccc2o1 (stereo not given) | inactive | 52.3% | inactive | inactive | inactive | –
O=C(c1ccc(-c2ccccc2F)cc1)c1cc2cc(-c3ccccc3F)ccc2o1 | inactive | 18.7% | inactive | inactive | inactive | –
OC(Cc1ccccc1)(c1ccc(-c2ccccc2)cc1)c1cc2cc(-c3ccccc3)ccc2o1 (stereo not given) | inactive | 30.5% | inactive | inactive | inactive | –
CCC(O)(c1ccc(-c2ccccc2)cc1)c1cc2cc(-c3ccccc3)ccc2o1 (stereo not given) | inactive | 12.9% | inactive | inactive | inactive | –
CCOc1ccccc1-c1ccc(C(O)(c2cc3cc(-c4ccccc4OCC)ccc3o2)C(C)(C)C)cc1 (stereo not given) | inactive | 21.2% | inactive | inactive | inactive | –
CCc1ccc(-c2ccc(C(O)(Cc3ccccc3)c3cc4cc(-c5ccc(CC)cc5)ccc4o3)cc2)cc1 (stereo not given) | inactive | 60.3% | inactive | inactive | inactive | –
CS(=O)(=O)c1cccc(-c2ccc(C(=O)c3cc4cc(-c5cccc(S(C)(=O)=O)c5)ccc4o3)cc2)c1 | inactive | 12.3% | – | – | – | zone of inhibition at 50000 µg/mL (Bacillus subtilis [2]): 16 mm; zone of inhibition at 50000 µg/mL (Escherichia coli [3]): 0 mm; zone of inhibition at 50000 µg/mL (Candida albicans [4]): 6 mm; MIC (Candida albicans [12]): 500 mg/L (≈ 942 µM); MIC (Bacillus subtilis [6]): 500 mg/L (≈ 942 µM); zone of inhibition at 50000 µg/mL (Staphylococcus aureus [7]): 0 mm
CCc1ccc(-c2ccc(C(O)(c3cc4cc(-c5ccc(CC)cc5)ccc4o3)C(C)(C)C)cc2)cc1 (stereo not given) | inactive | 24.2% | inactive | inactive | inactive | –
CC1(C)S[C@@H]2[C@H](NC(=O)[C@H](N)c3ccccc3)C(=O)N2[C@H]1C(=O)O [AMPICILLIN] | – | – | – | – | – | zone of inhibition at 50000 µg/mL (Bacillus subtilis [2]): 15 mm; zone of inhibition at 50000 µg/mL (Escherichia coli [3]): 20 mm; zone of inhibition at 50000 µg/mL (Candida albicans [4]): 0 mm; zone of inhibition at 50000 µg/mL (Staphylococcus aureus [7]): 16 mm
C=Cc1ccc(-c2ccc(C(=O)c3cc4cc(-c5ccc(C=C)cc5)ccc4o3)cc2)cc1 | inactive | 33.7% | – | – | – | zone of inhibition at 50000 µg/mL (Bacillus subtilis [2]): 16 mm; zone of inhibition at 50000 µg/mL (Escherichia coli [3]): 0 mm; zone of inhibition at 50000 µg/mL (Candida albicans [4]): 6 mm; MIC (Candida albicans [12]): 500 mg/L (≈ 1170 µM); MIC (Bacillus subtilis [6]): 50 mg/L (≈ 117 µM); zone of inhibition at 50000 µg/mL (Staphylococcus aureus [7]): 10 mm; MIC (Staphylococcus aureus [8]): 250 mg/L (≈ 586 µM)
O=C(c1ccc(-c2cccc([N+](=O)[O-])c2)cc1)c1cc2cc(-c3cccc([N+](=O)[O-])c3)ccc2o1 | inactive | 19.5% | – | – | – | zone of inhibition at 50000 µg/mL (Bacillus subtilis [2]): 7 mm; zone of inhibition at 50000 µg/mL (Escherichia coli [3]): 0 mm; zone of inhibition at 50000 µg/mL (Candida albicans [4]): 0 mm; MIC (Bacillus subtilis [6]): 50 mg/L (≈ 108 µM); zone of inhibition at 50000 µg/mL (Staphylococcus aureus [7]): 0 mm
Cc1cc(C(C)(C)C)c(O)c(C(C)(C)C)c1 | – | 90.4% | – | – | – | –
NYSTATIN | – | – | – | – | – | inhibition zone (IZ) (Bacillus subtilis [2]): 0 mm; inhibition zone (IZ) (Escherichia coli [3]): 0 mm; inhibition zone (IZ) (Staphylococcus aureus [7]): 0 mm
